Data from patent US20240335431A1, “1-H-PYRROLO[2,3-c]PYRIDINE COMPOUNDS” (Acerta Pharma B.V., priority 2023, published 2024).

Key:
OCI-AML3 cells = experiment: Proliferation assay, OCI-AML3 (CellTiter-Glo, 7 days); format: cell-based, human; conditions: Homo sapiens, OCI-AML-3, 168 h
Summary of the method: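 Cells were seeded at line-specific low densities for linear growth, exposed to 3.16-fold serial compound dilutions at 0.1% DMSO, and incubated 7 days at 37 °C, 5% CO2. Viability was read by CellTiter-Glo 2.0 luminescence; IC50 came from one-site fits of % inhibition, normalized between DMSO-treated cells (100%) and a day-0 plate (0%).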

muscarinic M2 receptor = muscarinic M2 receptor (Homo sapiens (Human), UniProt P08172); experiment: Muscarinic M2 receptor binding assay (assay 1); conditions: [3H]AF-DX 384 2 nM, Cheng Prusoff
muscarinic M2 receptor, sequence (P08172 whole entry): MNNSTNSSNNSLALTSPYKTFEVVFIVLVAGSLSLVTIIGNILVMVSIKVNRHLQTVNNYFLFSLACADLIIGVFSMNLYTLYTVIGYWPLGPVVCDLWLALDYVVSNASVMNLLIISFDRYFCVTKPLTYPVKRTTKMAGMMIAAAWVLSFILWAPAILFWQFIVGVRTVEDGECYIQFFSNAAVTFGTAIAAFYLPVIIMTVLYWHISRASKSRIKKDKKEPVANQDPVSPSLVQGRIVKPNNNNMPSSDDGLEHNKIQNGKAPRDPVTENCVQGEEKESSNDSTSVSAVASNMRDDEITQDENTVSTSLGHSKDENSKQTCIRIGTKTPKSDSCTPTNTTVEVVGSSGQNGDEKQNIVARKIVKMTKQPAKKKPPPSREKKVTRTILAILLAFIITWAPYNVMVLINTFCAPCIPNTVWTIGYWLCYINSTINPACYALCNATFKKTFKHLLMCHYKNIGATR
Summary of the method: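 Membrane homogenates (60 μg protein) were incubated with 2 nM [3H]AF-DX 384 for 60 min at 22° C in Tris-HCl pH 7.4 with NaCl, KCl, MgCl2 and EDTA; 1 μM atropine defined nonspecific binding. Filtration and scintillation counting gave percent inhibition of specific binding, with Ki by Cheng-Prusoff.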

[1] = Caco-2 cell monolayers intrinsic permeation assay in the presence of efflux inhibitors; format: in vitro ADME; conditions: Caco-2, with efflux inhibitors
Summary of the method: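 Caco-2 monolayers grown 14–18 days on Transwells; compound dosed apically in HBSS with efflux inhibitors (Zosuquidar, Benzbromarone, KO-143), inhibitors also basolateral, 37 °C with shaking. Sampled at 0, 45 and 120 min, analysed by LC/MS/MS; apical-to-basolateral Papp (cm/s) calculated.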

Row | SMILES | IC50 (OCI-AML3 cells) | Ki (muscarinic M2 receptor) | Papp A→B [1]
1 | CC(C)c1ncsc1-c1cc(F)ccc1-n1cc(C(=O)C2CCN(C(=O)[C@H]3N[C@@H]4CC[C@H]3C4)CC2)c2ccncc21.O=CO [Example 42, (1-((1R,3S,4S)-2-Azabicyclo[2.2.1]heptane-3-carbonyl)piperidin-4-yl)(1-(4-fluoro-2-(4-isopropylthiazol-5-yl)phenyl)-1H-pyrrolo[2,3-c]pyridin-3-yl)methanone 1·formic acid] | 76 nM | 500 nM | 1.3 ×10⁻⁶ cm/s
2 | CC(C)N(C(=O)c1cc(F)ccc1-n1cc(C(=O)[C@H]2CCN(C[C@H]3CC[C@H](NS(C)(=O)=O)CC3)C2)c2ccncc21)C(C)C [Example 1, 5-Fluoro-N,N-diisopropyl-2-(3-((S)-1-(((1r,4S)-4-(methylsulfonamido)-cyclohexyl)methyl)pyrrolidine-3-carbonyl)-1H-pyrrolo[2,3-c]pyridin-1-yl)benzamide] | 313 nM | 8100 nM | 2.7 ×10⁻⁶ cm/s
3 | Cc1c(C(=O)C2CCN(C(=O)[C@H]3NC[C@@H]4C[C@@H]43)CC2)c2ccncc2n1-c1ccc(F)cc1-c1cnccc1C(C)C [Example 54, (1-((1S,2S,5R)-3-Azabicyclo[3.1.0]hexane-2-carbonyl)piperidin-4-yl)(1-(4-fluoro-2-(4-isopropylpyridin-3-yl)phenyl)-2-methyl-1H-pyrrolo[2,3-c]pyridin-3-yl)methanone] | 43 nM | 3500 nM | 4 ×10⁻⁶ cm/s
4 | CC(C)N(C(=O)c1cc(F)ccc1-n1cc(C(=O)[C@H]2CCN(C(=O)[C@H]3N[C@@H]4CC[C@H]3C4)C2)c2ccncc21)C(C)C [Example 2, 2-(3-((S)-1-((1R,3S,4S)-2-Azabicyclo[2.2.1]heptane-3-carbonyl)pyrrolidine-3-carbonyl)-1H-pyrrolo[2,3-c]pyridin-1-yl)-5-fluoro-N,N-diisopropylbenzamide] | 126 nM | 800 nM | 0.4 ×10⁻⁶ cm/s
